Data reported in PubChem BioAssay AID330 (DTP/NCI, 2004).
Values joined by “and” are separate entries in the source; they are usually repeats but may differ in a detail not shown here. Equal entries are not always repeated. Inconclusive results and toxic doses are left out. Rule for the calls: active = survival T/C of 150% or more; inactive = T/C below 125% in these data.

System: P388 leukemia ip, CD2F1 mice, survival T/C
Assay: NCI In Vivo Anticancer Drug Screen. Data for tumor model P388 Leukemia (intraperitoneal) in CD2F1 (CDF1) mice
Conditions: endpoint: median survival time, higher = longer survival
Procedure, shortened: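 Mice carrying the transplanted tumor received test compound or vehicle. Survival was recorded in each group, and the value is the treated-group measurement divided by that of the vehicle-treated control group.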

[1] = dose: 50.0 mg/kg/injection, schedule: Q01DX005 (ip), vehicle: saline with Tween-80
[2] = dose: 100.0 mg/kg/injection, schedule: Q01DX005 (ip), vehicle: saline with Tween-80
[3] = dose: 200.0 mg/kg/injection, schedule: Q01DX005 (ip), vehicle: saline with Tween-80
[4] = dose: 25.0 mg/kg/injection, schedule: Q01DX005 (ip), vehicle: Klucel (hydroxypropylcellulose) (HPC)

Measured: T/C

CC1OC2CC(O)C1(O)C1=C2C(O)=C(C(N)=O)C(=N)C1=O (stereo not given)
inactive: dose: 0.01 mg/kg/injection, schedule: Q01DX009 (ip), vehicle: water 99 % of control | dose: 0.03 mg/kg/injection, schedule: Q01DX009 (ip), vehicle: water 100 % of control | dose: 0.07 mg/kg/injection, schedule: Q01DX009 (ip), vehicle: other 95 % of control | dose: 0.1 mg/kg/injection, schedule: Q01DX009 (ip), vehicle: water 100 % of control | dose: 0.15 mg/kg/injection, schedule: Q01DX009 (ip), vehicle: other 98 % of control | dose: 0.3 mg/kg/injection, schedule: Q01DX009 (ip), vehicle: water 100 % of control | dose: 0.31 mg/kg/injection, schedule: Q01DX005 (ip), vehicle: saline 104 % of control | dose: 0.31 mg/kg/injection, schedule: Q01DX009 (ip), vehicle: other 107 % of control | dose: 0.62 mg/kg/injection, schedule: Q01DX005 (ip), vehicle: saline 104 % of control | dose: 0.62 mg/kg/injection, schedule: Q01DX009 (ip), vehicle: other 101 % of control | dose: 1.0 mg/kg/injection, schedule: Q01DX009 (ip), vehicle: water 90 % of control | dose: 1.25 mg/kg/injection, schedule: Q01DX005 (ip), vehicle: saline 104 % of control | dose: 1.25 mg/kg/injection, schedule: Q01DX009 (ip), vehicle: other 103 % of control | dose: 2.5 mg/kg/injection, schedule: Q01DX005 (ip), vehicle: saline 104 % of control | dose: 2.5 mg/kg/injection, schedule: Q01DX009 (ip), vehicle: other 113 % of control | dose: 3.0 mg/kg/injection, schedule: Q01DX009 (ip), vehicle: water 100 % of control | dose: 5.0 mg/kg/injection, schedule: Q01DX005 (ip), vehicle: saline 101 % of control

O=c1oc2ccccc2c(O)c1C1=N/C(=N/N=C/c2ccc(Cl)cc2)SC1
inactive: dose: 15.0 mg/kg/injection, schedule: Q01DX005 (ip), vehicle: Klucel (hydroxypropylcellulose) (HPC) 98 % of control | dose: 30.0 mg/kg/injection, schedule: Q01DX005 (ip), vehicle: Klucel (hydroxypropylcellulose) (HPC) 100 % of control | dose: 60.0 mg/kg/injection, schedule: Q01DX005 (ip), vehicle: Klucel (hydroxypropylcellulose) (HPC) 101 % of control and 87 % of control | dose: 60.0 mg/kg/injection, schedule: Q02DX002 (ip), vehicle: Klucel (hydroxypropylcellulose) (HPC) 97 % of control | dose: 120.0 mg/kg/injection, schedule: Q02DX002 (ip), vehicle: Klucel (hydroxypropylcellulose) (HPC) 89 % of control | dose: 240.0 mg/kg/injection, schedule: Q02DX002 (ip), vehicle: Klucel (hydroxypropylcellulose) (HPC) 93 % of control

COC(=O)/C=C1\C2OC(C1C(=O)OC)C(O)C2O (stereo not given)
inactive: [1] 100 % of control | [2] 97 % of control | [3] 90 % of control

O=C(Nc1ccc2c(c1)Cc1cc(NC(=O)C34CC5CC(CC(C5)C3)C4)ccc1-2)C12CC3CC(CC(C3)C1)C2
inactive: dose: 100.0 mg/kg/injection, schedule: Q04DX002 (ip), vehicle: saline with Tween-80 88 % of control | dose: 200.0 mg/kg/injection, schedule: Q04DX002 (ip), vehicle: saline with Tween-80 89 % of control | dose: 400.0 mg/kg/injection, schedule: Q04DX002 (ip), vehicle: saline with Tween-80 92 % of control

CC[Si](C=C1CCCCC1)(CC)CC
inactive: dose: 50.0 mg/kg/injection, schedule: Q01DX009 (ip), vehicle: Klucel (hydroxypropylcellulose) (HPC) 101 % of control | dose: 100.0 mg/kg/injection, schedule: Q01DX009 (ip), vehicle: Klucel (hydroxypropylcellulose) (HPC) 110 % of control | dose: 200.0 mg/kg/injection, schedule: Q01DX009 (ip), vehicle: Klucel (hydroxypropylcellulose) (HPC) 109 % of control

Nc1cc2c3ccccc3ccc2c2ccccc12
inactive: [4] 104 % of control | dose: 50.0 mg/kg/injection, schedule: Q01DX005 (ip), vehicle: Klucel (hydroxypropylcellulose) (HPC) 107 % of control | dose: 100.0 mg/kg/injection, schedule: Q01DX005 (ip), vehicle: Klucel (hydroxypropylcellulose) (HPC) 109 % of control | dose: 200.0 mg/kg/injection, schedule: Q01DX005 (ip), vehicle: Klucel (hydroxypropylcellulose) (HPC) 105 % of control

N=C(N)Cl
inactive: dose: 15.0 mg/kg/injection, schedule: Q01DX005 (ip), vehicle: saline 100 % of control | dose: 30.0 mg/kg/injection, schedule: Q01DX005 (ip), vehicle: saline 94 % of control | dose: 60.0 mg/kg/injection, schedule: Q01DX005 (ip), vehicle: saline 88 % of control

CCC1(c2ccccn2)OCC(CBr)O1 (stereo not given)
inactive: [1] 93 % of control | [2] 100 % of control | [3] 93 % of control

CCO/C=C1\CC(=O)N(c2ccc(F)c(Cl)c2)C1=O
inactive: dose: 25.0 mg/kg/injection, schedule: Q01DX001 (ip), vehicle: saline with Tween-80 100 % of control | dose: 50.0 mg/kg/injection, schedule: Q01DX001 (ip), vehicle: saline with Tween-80 100 % of control | dose: 100.0 mg/kg/injection, schedule: Q01DX001 (ip), vehicle: saline with Tween-80 98 % of control and 100 % of control | dose: 200.0 mg/kg/injection, schedule: Q01DX001 (ip), vehicle: saline with Tween-80 109 % of control | dose: 400.0 mg/kg/injection, schedule: Q01DX001 (ip), vehicle: saline with Tween-80 100 % of control

C/C(=N\NC(=O)c1ccncc1)c1cccc(/C(C)=N/NC(=O)c2ccncc2)n1.CC(=O)[O-].CC(=O)[O-].[Zn+2]
inactive: dose: 12.5 mg/kg/injection, schedule: Q01DX005 (ip), vehicle: saline with Tween-80 110 % of control | dose: 25.0 mg/kg/injection, schedule: Q01DX005 (ip), vehicle: saline with Tween-80 104 % of control | [1] 88 % of control and 93 % of control

CN(C)C1=C(Cl)C(=O)c2[nH]cnc2C1=O
inactive: dose: 6.25 mg/kg/injection, schedule: Q01DX005 (ip), vehicle: Klucel (hydroxypropylcellulose) (HPC) 113 % of control | dose: 12.5 mg/kg/injection, schedule: Q01DX005 (ip), vehicle: Klucel (hydroxypropylcellulose) (HPC) 110 % of control | [4] 98 % of control

CCOC(=O)C1=C(C)Oc2cc3c(cc2C1c1cc(OC)c(OC)c(OC)c1)OCO3 (stereo not given)
inactive: dose: 60.0 mg/kg/injection, schedule: Q01DX005 (ip), vehicle: saline with Tween-80 97 % of control | dose: 120.0 mg/kg/injection, schedule: Q01DX005 (ip), vehicle: saline with Tween-80 98 % of control | dose: 240.0 mg/kg/injection, schedule: Q01DX005 (ip), vehicle: saline with Tween-80 94 % of control

Nc1ccc(/C=C/c2ccc3ncccc3c2)cc1
inactive: dose: 12.5 mg/kg/injection, schedule: Q01DX009 (ip), vehicle: saline with Tween-80 100 % of control | dose: 25.0 mg/kg/injection, schedule: Q01DX009 (ip), vehicle: saline with Tween-80 109 % of control | dose: 50.0 mg/kg/injection, schedule: Q01DX009 (ip), vehicle: saline with Tween-80 97 % of control

Cc1ccc(S(=O)(=O)NC(=O)ON2CCCCC2)cc1
inactive: dose: 50.0 mg/kg/injection, schedule: Q01DX009 (ip), vehicle: saline + Tween-80 + alcohol 95 % of control | dose: 100.0 mg/kg/injection, schedule: Q01DX009 (ip), vehicle: saline + Tween-80 + alcohol 95 % of control | dose: 200.0 mg/kg/injection, schedule: Q01DX009 (ip), vehicle: saline + Tween-80 + alcohol 92 % of control

COc1ccc2ccc3c4c(c(=O)[nH]c3c2n1)CCC4
inactive: dose: 100.0 mg/kg/injection, schedule: Q04DX003 (ip), vehicle: saline 101 % of control | dose: 200.0 mg/kg/injection, schedule: Q04DX003 (ip), vehicle: saline 92 % of control | dose: 400.0 mg/kg/injection, schedule: Q04DX003 (ip), vehicle: saline 105 % of control

O=C1c2ccccc2-c2cc(O)c3c4c(O)cc5c6c(ccc(c7ccc1c2c73)c64)C(=O)c1ccccc1-5
inactive: [1] 95 % of control | [2] 91 % of control | [3] 89 % of control

CN1CCN(C(=O)Nc2ccc(N=Nc3ccccc3)cc2)CC1
inactive: dose: 12.5 mg/kg/injection, schedule: Q01DX009 (ip), vehicle: saline sonified 105 % of control | dose: 25.0 mg/kg/injection, schedule: Q01DX009 (ip), vehicle: saline sonified 100 % of control
